In paper PMC11325505, “Nitrogen-Containing Flavonoids—Preparation and Biological Activity” (ACS Omega, 2024):
≈ marks a conversion by molar mass, not a printed value. Where “and” joins values, the source holds several entries; their conditions need not be identical. Identical values can stand only once. Like-named read-outs stand apart in the source and are kept apart here.

Experiments:
[1] = system: tumor necrosis factor (TNF-α) production by RAW 264.7 stimulated by LPS; test: Anti-inflammatory activity: TNF-α production by LPS-stimulated macrophages; assay type: cell-based, Murine; settings: Mus musculus, RAW264.7; LPS-stimulated RAW 264.7; average of four repetitions ± SEM; read-out: TNFα production IC50
Method: (§1) The anti-inflammatory activity of flavonoids was evaluated as their ability to decrease the production of signaling molecules that mediate inflammation, such as nitric oxide (NO), tumor necrosis factor (TNF-α), and interleukin 6 (IL-6), in LPS-stimulated macrophages.
(§2) The anti-inflammatory activity of the tested flavonoids was determined as the ability to reduce the production of nitric oxide (NO), tumor necrosis factor (TNF-α), and interleukin 6 (IL-6) by RAW 264.7 stimulated by LPS, as previously described.[39],[40] Briefly, 1 × 10^6 cells/mL was seeded into the 96-well plate (100 μL/well). After 48 h, LPS (100 ng/mL) and the samples (3–100 μM) were added to the MEM medium. After 24 h, the medium was mixed with Griess reagent (0.04 g/mL) at a 1:1 ratio. The absorbance was measured after 15 min at 540 nm. Cell viability was determined using the resazurin assay.
To determine TNF-α levels, cells were precultivated with the tested compounds for 24 h. After 2 h of incubation with LPS, the medium was diluted 1:10 with ELISA diluent. To determine the level of IL-6, cells were cultivated for 6 h with LPS and the tested compounds. Cytokine production was determined using an uncoated ELISA performed according to the manufacturer’s instructions.

[2] = system: nitric oxide (NO) production by RAW 264.7 stimulated by LPS; test: Anti-inflammatory activity: NO production by LPS-stimulated macrophages; assay type: cell-based, Murine; settings: Mus musculus, RAW264.7; LPS-stimulated RAW 264.7; average of four repetitions ± SEM
Method: as §1, §2

[3] = system: Methicilin-Resistant S. aureus 331 Strain; test: Mode of antimicrobial action with erythromycin, ermC-positive strain; assay type: cell-based; settings: for MIC, erythromycin [1 mg/L] yes / MIC, erythromycin [1 mg/L] no: MRSA 331 (ermC); for MIC, erythromycin [1 mg/L] yes: with erythromycin 1 mg/L; for MIC, erythromycin [1 mg/L] no: without erythromycin; for FIC (Fractional Inhibitory Concentration Index): with erythromycin
Description: Erythromycin is a macrolide antibiotic that inhibits proteosynthesis by binding to the 50S subunit of the ribosome. In Staphylococcus species, resistance to erythromycin is associated with the presence of methyltransferases (encoded by erm genes) that alter the ribosomal target site. Another typical mechanism of resistance to erythromycin is the presence of an ATP-dependent efflux pump encoded by the msr(A) gene or a major facilitator superfamily (MFS) pump encoded by the lmrS gene. Both efflux pumps reduce the concentration of erythromycin in the cell below the therapeutic dose by transporting it across the membrane to the extracellular space. Another erythromycin resistance gene is the mph(C) gene, the product of which is a phosphotransferase that alters the structure of macrolide antibiotics. To elucidate the mechanism of erythromycin resistance modulation in S. aureus, further tests were performed with the strains MRSA 331 and MRSA 3596, which inactivate erythromycin via a single mechanism (ermC and ermA, respectively). […] Therefore, if the activity was not strain-specific, it would be necessary to consider the effect of the derivatives on this pump (Table 3).
(§3) Sensitization of multidrug-resistant clinical bacterial strains was performed according to ref[15]. Antibiotic cutoff concentration was chosen according to the European Committee on Antimicrobial Susceptibility Testing (EUCAST, Clinical breakpoints–bacteria, ver. 11.0). The 200 μM concentration of the derivatives was chosen as the highest test concentration. The absorbance detected at 600 nm was then used to estimate the number of viable cells after 24 h of incubation at 37 °C and 120 rpm.
(§4) Experiments were performed with the respective number of replicates indicated in each figure/table. MIC was determined as IC70. Both IC70 and IC50 values were calculated using the following nonlinear regression in the software GraphPad Prism: […]

[4] = system: S. aureus CCM 4223; test: Antibacterial activity, antibiotic-sensitive strain; assay type: cell-based; settings: Staphylococcus aureus, CCM4223, three repetitions ± SEM
[5] = system: human dermal fibroblasts (HDF); test: Cytotoxicity (resazurin assay), fibroblasts; assay type: cell-based; settings: Homo sapiens, Fibroblast, 72 h, read-out: HDF IC50 (concentration that halved the viability)
Method: The cytotoxicity of the prepared derivatives was evaluated by their ability to decrease the viability of immortalized human keratinocytes (HaCaT) and human dermal fibroblasts (HDF).
100 μL of cell suspension containing 10^5 cells/mL was pipetted into a 96-well plate. After 24 h incubation, the tested compounds were added in the concentration range 12.5–200 μM. After 72 h incubation, the cell viability was tested by standard resazurin assay.[41] Briefly, the cells were washed with PBS and incubated with 100 μL of resazurin solution (0.025 mg/mL) for 2 h. The fluorescence was measured at a wavelength of 560 nm excitation/590 nm emission.

[6] = system: Staphylococcus aureus MRSA 9; test: Modulation of antibiotic-resistant phenotype (flavonoid plus breakpoint concentration of antibiotic); assay type: cell-based; settings: for minimum inhibitory concentration (MIC) in the presence of erythromycin: erythromycin at breakpoint concentration 1 mg/L; for minimum inhibitory concentration (MIC) in the presence of erythromycin / minimum inhibitory concentration (MIC) in the presence of gentamicin: MIC determined as IC70, three repetitions ± SEM; for minimum inhibitory concentration (MIC) in the presence of gentamicin: gentamicin at breakpoint concentration 1 mg/L
Method: To evaluate the ability to modulate bacterial resistance, the tested flavonoids themselves cannot exert antimicrobial activity; therefore, the nontoxic concentration was used, as indicated in Table S5. Clinically relevant antibiotics were selected at breakpoint concentrations for susceptibility testing according to the European Committee on Antimicrobial Susceptibility Testing (EUCAST, version 11.0). […] Flavonoids and their derivatives (from 1 μM to the highest nontoxic concentration) were used in combination with the breakpoint concentration of the antibiotics. After coincubation, the minimum inhibitory concentration (MIC) of flavonoids inhibiting the visible growth of bacteria was determined (Table 2).
as §3, §4

[7] = system: transmembrane efflux pumps; test: Ethidium bromide accumulation assay; assay type: cell-based, S. aureus MSSA 2; settings: for efflux inhibition (ethidium bromide accumulation), in words: compared with comparator CCCP, concentrations 25–100 μM
Description: The application of antibiotics often leads to oxidative stress in bacteria, which triggers the efflux pump systems that contribute to antimicrobial resistance.[34] Therefore, modulation of the efflux system has been proposed as another plausible target of derivatives. The efflux pump inhibitor carbonyl cyanide 3-chlorophenylhydrazone (CCCP) was used as a comparator in our assay. Its action destroys the proton-motive force at the membrane so that the efflux pump cannot transport substrates out of the cell. One such universal substrate is ethidium bromide, the accumulation of which in the cell can be measured using fluorescence.
The accumulation assay was performed according to previously published methods with minor modifications.[15],[42] Briefly, a bacterial culture of S. aureus MSSA 2 cultured overnight in the presence of colistin (4 mg/L) to induce oxidative stress and activate efflux system[34] was diluted in PBS to OD600 nm = 0.6. The suspension was centrifuged (13,000 × g; 3 min), resuspended in fresh PBS, and distributed into the wells of a black 96-well microtiter plate (ThermoFisher Scientific). Samples were diluted with EtBr solution (4 μg/mL). 50 μL of the mixture was added to 50 μL of the bacterial suspension. The reaction was monitored using SpectraMax iD5Multi-Mode Microplate Reader (ex/em = 530/600 nm) every 60 s for 60 min.

[8] = 72 h incubation, resazurin, average of three repetitions ± SEM

Row | SMILES | IC50 [1] [µM] | IC50 [2] [µM] | MIC, erythromycin [1 mg/L] yes [3] [µM] | MIC, erythromycin [1 mg/L] no [3] [µM] | FIC (Fractional Inhibitory Concentration Index) ([3]; MRSA 331) | IC50 [4] [µM] | IC50 [5] [µM] | minimum inhibitory concentration (MIC) in the presence of erythromycin [6] | efflux inhibition (ethidium bromide accumulation), in words [7] | minimum inhibitory concentration (MIC) in the presence of gentamicin [6] | inhibition at 200 µM ([6]; Staphylococcus aureus, MRSA, with gentamicin 1 mg/L, maximum concentration used (200 μM), read-out: maximum concentration used inhibited bacterial growth to) [%] | accumulation of ethidium bromide compared to 100 μM CCCP ([7]; compound at 25 μM, relative to CCCP (100 μM)) [%] | IC50 [5, 8] [µM] | effect (mode of action with erythromycin) ([3]; MRSA 331)
1 | O=c1cc(-c2ccc(O)c(O)c2)oc2c(Nc3ccc(C(F)(F)F)cc3)c(O)cc(O)c12 [compound 14, 2-(3,4-Dihydroxyphenyl)-8-(4-(trifluoromethyl)anilino)-5,7-dihydroxy-4H–1-benzopyran-4-one] | > 25 | > 25 | 27.0 ± 1.5 (≈ 12 µg/mL) | 27.0 ± 5.1 (≈ 12 µg/mL) | 1.00 ± 0.25 | 15.3 ± 0.7 | 29.9 ± 1.1 | >15 ^note 5 μM | – | – | – | – | – | –
2 | O=c1cc(-c2ccc(O)c(O)c2)oc2cc(O)cc(O)c12 [compound 10, luteolin, reference compound] | 25.9 ± 0.3 | 13.3 ± 0.2 | 31.6 ± 2.5 (≈ 9.05 µg/mL) | 28.1 ± 0.3 (≈ 8.04 µg/mL) | 1.12 ± 0.10 | > 200 | 42.9 ± 3.4 | 147.3 ± 7.7 µM | significantly better than CCCP at the same concentration (100 μM) | 84.7 ± 1.8 µM | – | – | – | –
3 | O=c1c(O)c(-c2ccc(O)c(O)c2)oc2cc(O)cc(O)c12 [compound 4, quercetin, reference compound] | 55.1 ± 2.1 | 9.3 ± 0.6 | 190.9 ± 0.5 (≈ 57.7 µg/mL) | 193.1 ± 1.0 (≈ 58.4 µg/mL) | 0.99 ± 0.01 | > 200 | 80 ± 1.5 | 117.3 ± 4.7 µM | efflux inhibitors | >200 ^note 1 μM | 57 | – | – | –
4 | O=c1c(O)c(-c2ccc(O)c(O)c2)oc2c(Nc3ccc(F)cc3)c(O)cc(O)c12 [compound 5, 2-(3,4-Dihydroxyphenyl)-8-(4-fluoroanilino)-3,5,7-trihydroxy-4H–1-benzopyran-4-one] | > 50 | 37.4 ± 1.6 | – | – | – | 28 ± 0.1 | – | >200 µM | – | 45.2 ± 0.6 µM | – | 75 | 95.9 ± 6.1 | –
5 | O=c1cc(-c2ccc(O)c(O)c2)oc2c(Nc3ccccc3)c(O)cc(O)c12 [compound 13, 2-(3,4-Dihydroxyphenyl)-8-(anilino)-5,7-dihydroxy-4H–1-benzopyran-4-one] | > 25 | 29.3 ± 0.1 | – | – | – | 50 ± 1.2 | – | >200 µM | – | 24.7 ± 0.8 µM | – | – | 58.3 ± 2.7 | –
6 | O=c1c(O)c(-c2ccc(O)c(O)c2)oc2c(Nc3ccc(C(F)(F)F)cc3)c(O)cc(O)c12 [compound 8, 2-(3,4-Dihydroxyphenyl)-8-(4-(trifluoromethyl)anilino)-3,5,7-trihydroxy-4H–1-benzopyran-4-one] | > 50 | 53.3 ± 0.8 | 15.9 ± 0.8 (≈ 7.34 µg/mL) | 6.9 ± 0.2 (≈ 3.18 µg/mL) | – | 39.3 ± 1.8 | 111.9 ± 0.5 | >25 ^note 3 μM | – | 8.1 µM and 8.1 ± 0.6 µM | – | – | – | antagonism (≥2 indicates antagonism)
7 | O=c1cc(-c2ccc(O)c(O)c2)oc2c(Nc3cccc(F)c3)c(O)cc(O)c12 [compound 15, 2-(3,4-Dihydroxyphenyl)-8-(3-fluoroanilino)-5,7-dihydroxy-4H–1-benzopyran-4-one] | > 25 | 31.8 ± 0.9 | – | – | – | 28 ± 2.2 | – | >200 µM | – | 12.4 ± 0.3 µM | – | – | 30.9 ± 2.1 | –
8 | COc1ccc(Nc2c(O)cc(O)c3c(=O)cc(-c4ccc(O)c(O)c4)oc23)cc1 [compound 12, 2-(3,4-Dihydroxyphenyl)-8-(4-methoxyanilino)-5,7-dihydroxy-4H–1-benzopyran-4-one] | > 50 | 48.3 ± 1.3 | 54.8 ± 0.4 (≈ 22.3 µg/mL) | 54.4 ± 2.1 (≈ 22.2 µg/mL) | 1.01 ± 0.05 | 54 ± 0.1 | – | 76.3 µM and 76.3 ± 1.9 µM | – | 44.0 ± 1.6 µM | – | – | 35.5 ± 1.5 | –
